Laboratory results taken from patent US20240409572A1, “COMPOUND FOR TREATING NEURODEGENERATIVE DISEASES AND ITS ISOLATION METHOD THEREOF” (SARAWAK BIODIVERSITY COUNCIL, priority 2020, published 2024).

Molecular target: T1, recombinant human POP (Homo sapiens, UniProt P48147)
T1 construct: purchased USBiological, MA
T1 sequence (P48147 1-710): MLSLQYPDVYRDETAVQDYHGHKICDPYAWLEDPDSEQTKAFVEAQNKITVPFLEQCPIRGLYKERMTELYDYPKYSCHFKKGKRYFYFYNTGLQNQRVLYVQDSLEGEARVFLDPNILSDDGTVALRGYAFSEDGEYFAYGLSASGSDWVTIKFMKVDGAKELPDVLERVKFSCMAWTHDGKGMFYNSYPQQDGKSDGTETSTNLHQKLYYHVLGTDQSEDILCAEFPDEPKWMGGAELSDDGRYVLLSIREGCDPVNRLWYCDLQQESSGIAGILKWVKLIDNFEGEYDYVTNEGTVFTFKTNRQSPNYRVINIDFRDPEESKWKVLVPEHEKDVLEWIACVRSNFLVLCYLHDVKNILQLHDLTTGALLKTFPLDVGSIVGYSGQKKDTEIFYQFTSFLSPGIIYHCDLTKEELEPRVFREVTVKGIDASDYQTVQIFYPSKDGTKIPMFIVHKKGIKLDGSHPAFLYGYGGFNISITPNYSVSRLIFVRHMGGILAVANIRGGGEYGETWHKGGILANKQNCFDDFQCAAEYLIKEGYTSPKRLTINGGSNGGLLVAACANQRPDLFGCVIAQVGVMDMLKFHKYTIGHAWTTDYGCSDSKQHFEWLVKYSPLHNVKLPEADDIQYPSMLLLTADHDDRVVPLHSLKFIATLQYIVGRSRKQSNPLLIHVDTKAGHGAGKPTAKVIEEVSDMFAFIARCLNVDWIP
Experiment: POP enzyme inhibition colorimetric assay (recombinant human POP)
Assay type: biochemical
Conditions: 0.04 mg/ml; read-out: inhibition against human POP
Method: FIG. 3 illustrates the inhibition activity of FGS03 against Flavobacterium and recombinant human POP. FGS03 is tested at final concentrations of 0.02 mg/ml and 0.04 mg/ml respectively. Positive control is PE Inhibitor II, Calbiochem, USA. Each sample is tested in triplicate. Data represented as mean value with standard deviation, n=3.
The POP inhibitory activity of compound was evaluated using an enzyme inhibition assay. A colorimetric assay was set up using Flavobacterium and recombinant human POP enzymes. The POP enzyme solutions obtained from Flavobacterium (0.5 U mL^−1 giving 0.0416 units per well) and human (USBiological, MA with working concentration 0.006 mg/ml) were added to the 96-well plates containing sample extracts and phosphate buffer (100 mM, pH 7.0). The reaction was initiated with the addition of enzyme substrate, Z-Gly-Pro-4-nitroanilide (2 mM in 40% dioxane) and incubated at 30° C. for 15 minutes. Stopper buffer (2 M acetate buffer, pH 4.0 with 10% Triton-X) was added to stop the enzyme reaction. The released p-nitroanilide was determined colorimetrically with a plate reader at 414 nm. The inhibition activity was calculated using the formula:
[formula] • where blank=control without the inhibitor • OD=change in optical density during the assay.

inhibition at 40 µg/mL: 80%
SMILES: CCCCCCCCCCCc1cc(O)cc(O[C@H]2O[C@@H](C(=O)O)[C@@H](O)[C@H](O)[C@H]2O)c1C(=O)O [FGS03, (2R,3S,4S,5R,6R)-6-(2-carboxy-5-hydroxy-3-undecylphenoxy)-3,4,5-trihydroxytetrahydro-2H-pyran-2-carboxylic acid]
